Laboratory results as given in PubChem BioAssay (NCI).
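Where inhibition never reached the appropriate level, the endpoint shown equals the highest concentration tested. Otherwise, values were interpolated linearly from a five-concentration, 48-hour dose response in 96-well plates. The concentration for 50% growth inhibition is given as GI50. TGI: total growth inhibition.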

Assays:
Experiment in all cases: growth of human tumour cells (NCI), 48 h
TK-10 renal = system: TK-10 renal
COLO 205 colon = system: COLO 205 colon
SNB-19 CNS = system: SNB-19 CNS
SF-268 CNS = system: SF-268 CNS
UACC-257 melanoma = system: UACC-257 melanoma
A498 renal = system: A498 renal
M14 melanoma = system: M14 melanoma
CCRF-CEM leukemia = system: CCRF-CEM leukemia
RPMI-8226 leukemia = system: RPMI-8226 leukemia
K-562 leukemia = system: K-562 leukemia

| SMILES | TGI (TK-10 renal) | TGI (COLO 205 colon) | TGI (SNB-19 CNS) | TGI (SF-268 CNS) | TGI (UACC-257 melanoma) | TGI (A498 renal) | TGI (M14 melanoma) | TGI (CCRF-CEM leukemia) | TGI (RPMI-8226 leukemia) | TGI (K-562 leukemia) | GI50 (TK-10 renal) | GI50 (COLO 205 colon) | GI50 (SNB-19 CNS) | GI50 (SF-268 CNS) | GI50 (UACC-257 melanoma) | GI50 (A498 renal) | GI50 (M14 melanoma) | GI50 (CCRF-CEM leukemia) | GI50 (RPMI-8226 leukemia) | GI50 (K-562 leukemia) |
| --- | --- | --- | --- | --- | --- | --- | --- | --- | --- | --- | --- | --- | --- | --- | --- | --- | --- | --- | --- | --- |
| OC(c1ccccc1)(c1ccccc1)c1ccccn1 | > 100 µM | > 100 µM | > 100 µM | > 100 µM | > 100 µM | > 100 µM | > 100 µM | > 100 µM | > 100 µM | > 100 µM |  |  |  |  |  |  |  |  |  |  |
| Clc1ccc(-c2nc3c(-c4ccc(Cl)cc4)nc(-c4ccccc4)cn3c2-c2ccc(Cl)cc2)cc1 | > 50 µM | > 50 µM | > 50 µM | > 50 µM | > 50 µM | > 50 µM | > 50 µM | > 50 µM | > 50 µM | > 50 µM | 34.3 µM | > 50 µM | > 50 µM | > 50 µM | > 50 µM | > 50 µM | > 50 µM | > 50 µM | > 50 µM | > 50 µM |
| O=C(CCc1nnc2s/c(=C\c3ccccc3)c(=O)n12)Nc1cc(Cl)ccc1Cl | > 100 µM | > 100 µM | > 100 µM | > 100 µM | > 100 µM | > 100 µM | > 100 µM | > 100 µM | > 100 µM | > 100 µM |  |  |  |  |  |  |  |  |  |  |
| COc1c(OC(C)=O)cc2c(OC(C)=O)c1CC(C)CC(OC)C(O)C(C)/C=C(\C)C(OC(N)=O)C(OC)/C=C\C=C(/C)C(=O)N2 (centres undefined) | > 100 µM | > 100 µM | > 100 µM | > 100 µM | > 100 µM | > 100 µM | > 100 µM | 98.3 µM | > 80.9 µM | > 62.6 µM |  |  |  |  |  |  |  |  |  |  |
| CC(=O)NNc1nc(C)c(C(=O)NNC(=O)C(=O)Nc2ccc(C)c(C)c2)s1 | > 100 µM | > 100 µM | > 100 µM | > 100 µM | > 100 µM | > 100 µM | > 100 µM | > 100 µM | > 100 µM | > 100 µM |  |  |  |  |  |  |  |  |  |  |
| COC(=O)C(C(=O)C(=O)Nc1cccc(O)c1)c1nc2ccc(Cl)cc2[nH]c1=O (centres undefined) | > 100 µM | > 100 µM | > 100 µM | > 100 µM | > 100 µM | > 100 µM | > 100 µM | > 100 µM | > 100 µM | > 100 µM |  |  |  |  |  |  |  |  |  |  |
| Nc1ccc2c(c1)C(=O)c1ccc(F)cc1-2 | > 100 µM | > 100 µM | > 100 µM | > 100 µM | > 100 µM | > 100 µM | > 100 µM | > 100 µM | > 100 µM | > 100 µM |  |  |  |  |  |  |  |  |  |  |
| O=C1Cc2cc(CCn3ccnc3)c(Cl)cc2N1 | > 100 µM | > 100 µM | > 100 µM | > 100 µM | > 100 µM | 61.1 µM | 39.8 µM | > 100 µM | > 100 µM | > 100 µM | > 100 µM | 15.1 µM | 22.1 µM | 11.2 µM | 5.65 µM | 2.19 µM | 3.46 µM | 3.37 µM | 46.2 µM | 8.26 µM |
| CC(=O)Nc1ccc2nncnc2c1 | > 100 µM | > 100 µM | > 100 µM | > 100 µM | > 100 µM | > 100 µM | > 100 µM | > 100 µM | > 100 µM | > 100 µM |  |  |  |  |  |  |  |  |  |  |
| CCN1CCN(CCOc2ccc(CNc3ccc4nc(CCC5CCCCC5)[nH]c4c3)cc2)CC1 | 8.06 µM | 3.52 µM | 13 µM | 5.16 µM | 4.12 µM | 3.35 µM | 3.29 µM | 8.75 µM | 3.79 µM | 2.69 µM | 2.93 µM | 1.76 µM | 3.58 µM | 2 µM | 1.85 µM | 1.44 µM | 1.68 µM | 1.61 µM | 1.43 µM | 0.42 µM |
| CC1=C(C(=O)Nc2cccc(C(F)(F)F)c2)C(c2ccc(O)cc2)C(C(=O)Nc2cccc(C(F)(F)F)c2)=C(C)N1 | 66.6 µM | 27 µM | > 100 µM | > 100 µM | 36 µM | 71.9 µM | 35.5 µM | 66.4 µM | 41.2 µM | 44.7 µM |  |  |  |  |  |  |  |  |  |  |
| CCCc1cc(=O)oc2c(C(=O)CC(C)C)c(O)c(CC=C(C)C)c(O)c12 | > 50 µM | 21.5 µM | > 50 µM | > 50 µM | 29.9 µM | 17.9 µM | > 50 µM | > 50 µM | 22.1 µM | > 50 µM | 12.2 µM | 10.6 µM | 14.5 µM | 11.2 µM | 5.89 µM | 4.04 µM | 10.3 µM | 4.97 µM | 2.86 µM | 4.13 µM |
| O=c1[nH]c(=S)[nH]c2c1sc(=S)n2-c1ccccc1 | > 100 µM | > 100 µM | > 100 µM | > 100 µM | > 100 µM | > 100 µM | > 100 µM | > 100 µM | > 100 µM | > 100 µM |  |  |  |  |  |  |  |  |  |  |
| CCCOc1ccc(/C(Cl)=C(\C=O)c2ccc(OC)c(OC)c2)cc1OCCC | 94.3 µM | 14.6 µM | > 100 µM | > 100 µM | > 100 µM | 38.5 µM | > 100 µM | > 100 µM | > 100 µM | > 100 µM |  |  |  |  |  |  |  |  |  |  |
| COc1ccc(/C=C/c2cc(OC)c(O[Si](C)(C)C(C)(C)C)c(OC)c2)cc1 |  | > 100 µM | > 100 µM | > 100 µM | > 100 µM | > 100 µM | > 100 µM | > 100 µM | > 100 µM | > 100 µM |  |  |  |  |  |  |  |  |  |  |
| Cc1cccc(CN(C)c2ccc(CO)c(Cl)c2)c1 | 1.56 µM | 17.7 µM | > 100 µM | > 100 µM | 2.22 µM | 0.184 µM | > 65.9 µM | > 100 µM | > 69.3 µM | > 100 µM | 0.267 µM | 4.86 µM | 28.4 µM | 33.7 µM | 0.565 µM | 0.0433 µM | 20.6 µM | 27 µM | 14.4 µM | 8.76 µM |
| C=C1C(=O)OC2CCCCC3OC3C12 (centres undefined) | 26.7 µM | 11.5 µM | 36.8 µM | 31.1 µM | 26.5 µM | 29.1 µM | 20.4 µM | 20.2 µM | 27.4 µM | 70.5 µM |  |  |  |  |  |  |  |  |  |  |
| CC(=O)CC(=O)CCCC(=O)Nc1ccc(Cl)cc1C | > 100 µM | > 100 µM | > 100 µM | > 100 µM | > 100 µM | > 100 µM | > 100 µM | > 100 µM | > 100 µM | > 100 µM |  |  |  |  |  |  |  |  |  |  |
